In publication PMC5048153 (Scientific Reports, 2016):
Like-named read-outs stand apart in the source and are kept apart here.

Assays:
[1] = tested on: corticosterone-injured PC12 cells; assay: Protective effects on corticosterone-injured PC12 cells (MTT); format: cell-based, rat; conditions: 24 h after treatment; for PR (protection rate): 200 μM corticosterone
Method: PC12 cells were purchased from American Type Culture Collection and were maintained in DMEM medium supplemented with penicillin (100 unit/ml), streptomycin (100 μg/ml), 5% fetal bovine serum (FBS), and 10% horse serum at 37 °C in humidified atmosphere with 5% CO2. The detailed procedures were performed referring to the reported literatures. Briefly, PC12 cells of logarithmic growth phase were collected, re-suspended and then seeded at a density of 1 × 10^5 cells per well in 96-well plates and cultured in the DMEM medium with 5% horse serum, 10% FBSfor 24 h.
After incubation with compounds, 20 μl of 5 mg/ml MTT solution was added to each well and cultured at 37 °C for 2 h–4 h. Then, the culture medium was removed, and 150 μl dimethyl sulfoxide(DMSO) was added to each well for 15 min at room temperature. The absorbance of each well was measured at 570 nm using a microplate reader. The protective rates (PR) were calculated according to equation (1).

[2] = tested on: L02 cells; assay: Cytotoxicity on L02 cells (MTT); format: cell-based, human; conditions: Homo sapiens, L02, 100μM, after treatment; read-out: IR (inhibitory rate) L02
Method: (§1) Human normal hepatic L02 cells, human embryonic kidney cell line 293 cells (HEK293) and Rattus myoblast cell line H9C2 cells were respectively seeded in 96-well plates at a density of 4 × 10^3 cells per well and cultured in the 1640 or DMEM medium, with the supplement of 10% fetal bovine serum, penicillin (100 unit/ml), streptomycin (100 μg/ml) in a humidified incubator with 5% CO2 for 24 h. […] The cytotoxicities of the compounds were evaluated by MTT method.

[3] = tested on: C57 mice; assay: Acute toxicity evaluation with H&E histology; format: in vivo, mouse
Method: Ten mice of each group were sacrificed on the 7th day, their heart, liver, spleen, lung and kidney were harvested and H&E histological staining was performed. Then the stained tissues were observed by two pathologists in a blinded manner.

[4] = tested on: corticosterone injured PC12 cells; assay: Intracellular ROS level (DCF-DA); format: cell-based, rat; conditions: 200 μM corticosterone and 5 μM drug; vehicle-treated PC12 cells = 100%
Method: In brief, PC12 cells were washed with D-Hanks after drug treatment. Then cells were incubated with 2′, 7′-dichloro-fluorescein diacetate (DCF-DA, 20 μM) for 30 min at 37 °C in darkness.

[5] = target: T1, 5-HT2C receptor (Homo sapiens, UniProt P28335); assay: FLIPR assay for 5-HT2C antagonism; format: cell-based; conditions: for inhibition at 100 µM: read-out: Inhibition 5-HT2C
T1 sequence (P28335 33-458): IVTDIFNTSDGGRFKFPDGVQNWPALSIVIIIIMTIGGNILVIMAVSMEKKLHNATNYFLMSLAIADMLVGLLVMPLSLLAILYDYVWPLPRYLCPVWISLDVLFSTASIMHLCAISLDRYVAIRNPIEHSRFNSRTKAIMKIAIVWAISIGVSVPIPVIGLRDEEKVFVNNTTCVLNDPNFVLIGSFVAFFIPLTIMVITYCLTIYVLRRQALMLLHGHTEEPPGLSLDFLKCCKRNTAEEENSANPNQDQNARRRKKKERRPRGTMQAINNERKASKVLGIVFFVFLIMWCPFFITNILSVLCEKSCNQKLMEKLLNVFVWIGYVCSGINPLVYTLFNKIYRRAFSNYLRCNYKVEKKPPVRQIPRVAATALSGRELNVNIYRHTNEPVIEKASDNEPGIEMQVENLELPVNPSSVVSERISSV
Method: Seed cells at the density of 10 K cell/well, 37 °C, 5% CO2 incubate for 16–24 hours, then loading cells with 30 ul of Calcium 5 and 37 °C, 5% CO2 incubate for 1 hour. After transfer compound to compound plate with 30 ul Assay Buffer by Echo, add 15 ul/well of compound, incubate for 10 mins.

[6] = tested on: SD rats; assay: Open field locomotor activity; format: in vivo, rat; conditions: ig. 32 mg/kg/day, days 2–15, vs untreated rats
Method: The detailed procedures were performed according to our previous studies. In brief, each SD rat was placed at the center of the open field (50 × 50 cm^2 chamber, 50-cm-high walls, with a 25 cm^2 area in the middle of floor defined as the central square) for 6 min in a quiet room. The animals were gently placed in the center of the platform and were allowed to explore the surroundings. A camera was installed above the center of the field. Immediately after a rat was placed at the center in the open field, the movements and position of the animals were recorded and registered automatically by computerized system. Next test was performed after cleaning the chamber. The traveled tracks of rats were recorded for 6 minutes and the videos of the last 4 minutes were analyzed also by Xeye Animal behavior analysis system.

[7] = tested on: corticosterone injured PC12 cells; assay: Intracellular GSH level; format: cell-based, rat; conditions: 200 μM corticosterone and 5 μM drug; vehicle-treated PC12 cells = 100%
Method: The GSH level was measured by reference of literatures’ methods[55][56] with appropriate revision. […] After being incubated on ice for 10 min, the lysate was centrifuged at 10 000 rpm for 10 min. […] The mixture was centrifuged at 3000 × g for 10 min at 4 °C, and then 200 μL of the resulting supernatant was mixed with 1 mL of phosphate buffer (100 mM, pH 8.0) and 50 μL of 5, 5-dithiobis-2-nitrobenzoic acid (DTNB).

[8] = tested on: corticosterone-injured PC12 cells; assay: Intracellular calcium ion concentration analysis (Fura-2 AM); format: cell-based, rat; conditions: 200 µM corticosterone and 5 µM drug
Method: The detailed procedures were performed according to the reported literatures. In brief, calcium ion concentration was measured by Fura-2 AM (Thermo Scientific). PC12 cells were treated with compound 6a-1 for 48 hours. Then cells were detached with 0.25% trypsin and centrifuged at 1000 r/min for 5 minutes. The supernatant was removed and the cells were stained with Fura-2 AM according to the manufacturer’s instructions. Fluorescence intensity of labeled cells was photographed for 25 random sights each group using Thermo Scientific Array Scan Infinity.

[9] = tested on: rat hippocampus; assay: BDNF, VEGF and IGF-1 level in vivo (ELISA); conditions: 21-day treatment, i.p. 40 mg/kg, vs vehicle-treated group
Method: The detailed procedures were performed according to the reported literatures.
SD rats were killed by decapitation and hippocampi were dissected out and stored at −80 °C until use. Tissue samples were homogenized at 4 °C in Promega lysis buffer for ELISA. Samples were then sonicated and lysates were cleared by centrifugation at 4 °C, 15 000 g. Protein concentrations were determined according to the Bradford assay using bovine serum albumin as standard. Quantifications of VEGF and IGF-1 proteins were measured with Quantikine M mouse VEGF and IGF-1enzyme immunoassay kits and BDNF protein with a mouse ELISA kit.

[10] = PAMPA-BBB permeation assay; format: in vitro ADME; conditions: for Papp at 18 h, 100 μg/mL: Pe ± SD (n = 3), pH 7.4
Method: Parallel artificial membrane permeation assay (PAMPA) was performed according to the literature[44] with minor modification. The PVDF (Poly(vinylidene fluoride)) membrane of the donor plate was coated with PBL (Polar Brain Lipid, Avanti, USA) in dodecane (4 μL of 20 mg/mL PBL in dodecane) and the acceptor well was filled with 350 μL of PBS/EtOH (70/30, v/v, pH 7.4) buffer (VD). The tested compound was dissolved in DMSO and then diluted with PBS/EtOH (70/30, v/v, pH 7.4) buffer to reach the concentration of 100 μg/mL in the donor well.
200 μL of the donor solution was added to the donor wells (VA) and the donor filter plate was carefully put on the acceptor plate so that the coated membrane contacted both donor solution and acceptor buffer. Test compound diffused from the donor well through the lipid membrane (area = 0.28 cm^2) to the acceptor well. The concentration of the drug in both donor and the acceptor wells was assessed after 18 hours of incubation at room temperature in triplicate using Varioskan Flash Multimode Reader (Thermo Scientific) at the maximum absorption wavelength of tested compound. Concentration of the compound was calculated from the standard curve and expressed as the permeability (Pe) according to Equation (2):

[11] = tested on: HEK293 cells; assay: Cytotoxicity on HEK293 cells (MTT); format: cell-based, human; conditions: Homo sapiens, HEK293, 100μM, after treatment; read-out: IR (inhibitory rate) HEK293
Method: as §1

| Structure (SMILES) | PR (protection rate) ([1]; 5 μM) [%] | PR (protection rate) ([1]; […]) [%] | inhibition at 100 µM [2] [%] | heart histology (H&E) ([3]; 140 mg/kg/day, 7th day) | liver histology (H&E) ([3]; 140 mg/kg/day, 7th day) | spleen histology (H&E) ([3]; 140 mg/kg/day, 7th day) | ROS level [4] [%] | improved travelled distance [6] [%] | GSH level [7] [%] | fluorescence intensity of free intracellular calcium ion [8] | hippocampal IGF-1 level [9] | hippocampal VEGF level [9] | CNS(+/−) prediction of blood-brain barrier penetration [10] | Papp at 18 h, 100 μg/mL [10] [nm/s] | inhibition at 100 µM [11] [%] | also measured |
| --- | --- | --- | --- | --- | --- | --- | --- | --- | --- | --- | --- | --- | --- | --- | --- | --- |
| COc1ccc2cccc(CCNC(C)=O)c2c1 [Agomelatine, reference compound] | 17.6 | 24.2 | 41.8 | no necrosis, hemorrhage or inflammatory exudates were observed | severely damaged | unchanged | 125.0 | 91.2 | 93.4 | weaker fluorescence intensity than corticosterone-injured PC12 cells | neither compound 6a-1 nor Agomelatine exerted any influence | neither compound 6a-1 nor Agomelatine exerted any influence | CNS+ | 178 ± 3.7 | 47.5 | PR (protection rate), Table S1 ([1]; 1.25µM): 28.1%; PR (protection rate) ([1]; 1.25 μM): 28.1%; inhibition at 100 µM ([5]; max tested concentration at 100μM): 66.6% |
| COc1ccc2c(c1)C(CCNC(C)=O)=NCC2.O=C(O)C(=O)O [6a-1, N-(2-(7-Methoxy-3,4-dihydroisoquinolin-1-yl)ethyl) acetamide oxalate] | 42.1 | 37.1 | < 20 | cardiac myocytes were fragmented and arranged promiscuously | hepatic cords were distinctly clear | unchanged | 140.3 | 131.2 | 87.7 | much weaker fluorescence intensity than Fluoxetine and Agomelatine | neither compound 6a-1 nor Agomelatine exerted any influence | neither compound 6a-1 nor Agomelatine exerted any influence | CNS+ | 167 ± 4.1 | < 20 | kidney histology (H&E) ([3]; 140 mg/kg/day, 7th day): did not show any significant difference compared with normal; lung histology (H&E) ([3]; 140 mg/kg/day, 7th day): did not show any significant difference compared with normal; clinical signs of toxicity ([3]; intragastric 140 mg/kg/day, 7-day administration): No visible clinical signs of toxicity; IC50 ([5]; FLIPR calcium flux, read-out: IC50 5-HT2C antagonism): > 100 µM; inhibition at 100 µM [5]: 5.2% |
